# Reference: patent US20100056600A1, “11BETA-HSD1 ACTIVE COMPOUNDS” (priority 2007, published 2010)
# Target: T1, h-11βHSD1 (Homo sapiens, UniProt P28845)
# T1 construct: made in house
# Test: 11βHSD1 enzyme assay (SPA, 3H-cortisone to 3H-cortisol)
# Type: biochemical
# Conditions: extract of yeast transformed with h-11βHSD1; 120 nM 3H-cortisone, 4 mM β-NADPH, 60 min at 30° C.
# Procedure: ^3H-cortisone and anti-rabbit Ig coated scintillation proximity assay (SPA) beads were purchased from Amersham Pharmacia Biotech, β-NADPH was from Sigma and rabbit anti-cortisol antibodies were from Fitzgerald. An extract of yeast transformed with h-11βHSD1 (Hutt et al., FEBS Lett, 441, 25 (1998)) was used as the source of enzyme. The test compounds were dissolved in DMSO (10 mM). All dilutions were performed in a buffer containing 50 mM TRIS-HCl (Sigma Chemical Co), 4 mM EDTA (Sigma Chemical Co), 0.1% BSA (Sigma Chemical Co), 0.01% Tween-20 (Sigma Chemical Co) and 0.005% bacitracin (Novo Nordisk A/S), pH=7.4. Optiplate 96 wells plates were supplied by Packard. The amount of ^3H-cortisol bound to the SPA beads was measured on TopCount NXT, Packard.
# h-11βHSD1, 120 nM ^3H-cortisone, 4 mM β-NADPH, antibody (1:200), serial dilutions of test compound and SPA particles (2 mg/well) were added to the wells. The reaction was initiated by mixing the different components and was allowed to proceed under shaking for 60 min at 30° C. The reaction was stopped be the addition of 10 fold excess of a stopping buffer containing 500 μM carbenoxolone and 1 μM cortisone. Data was analysed using GraphPad Prism software.
# T1 sequence (P28845 whole entry): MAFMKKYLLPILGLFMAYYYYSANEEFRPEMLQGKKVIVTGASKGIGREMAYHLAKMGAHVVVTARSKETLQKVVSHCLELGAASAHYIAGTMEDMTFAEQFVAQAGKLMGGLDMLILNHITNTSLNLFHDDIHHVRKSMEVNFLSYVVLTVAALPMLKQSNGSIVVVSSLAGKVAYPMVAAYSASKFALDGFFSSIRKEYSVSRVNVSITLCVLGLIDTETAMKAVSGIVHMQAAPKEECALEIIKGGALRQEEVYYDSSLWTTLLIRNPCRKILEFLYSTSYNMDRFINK
row,SMILES,IC50 [nM]
1,"O=C(c1ccc2c(c1)-c1ccccc1C2)N1C2CCC1CC(O)C2 (single isomer, unassigned) [Example 1, (9H-Fluoren-3-yl)-(cis 3-hydroxy-8-aza-bicyclo[3.2.1]oct-8-yl)-methanone]",8
2,"O=C(c1ccc2c(c1)-c1ccccc1C2)N1C2CCC1CC(O)C2 (single isomer, unassigned) [Example 2, (9H-Fluoren-3-yl)-(trans 3-hydroxy-8-aza-bicyclo[3.2.1]oct-8-yl)-methanone]",246
3,"Cn1c2ccccc2c2cc(C(=O)N3C4CCC3CC(O)C4)ccc21 (centres unmarked) [Example 3, (3-Hydroxy-8-aza-bicyclo[3.2.1]oct-8-yl)-(9-methyl-9H-carbazol-3-yl)-methanone]",6
4,"O=C(c1ccc2[nH]c3ccccc3c2c1)N1C2CCC1CC(O)C2 (centres unmarked) [Example 4, (9H-Carbazol-3-yl)-(3-hydroxy-8-aza-bicyclo[3.2.1]oct-8-yl)-methanone]",30
5,"Cn1c2ccccc2c2cc(C(=O)N3CC4CC3CC4O)ccc21 (centres unmarked) [Example 5, (5-Hydroxy-2-aza-bicyclo[2.2.1]hept-2-yl)-(9-methyl-9H-carbazol-3-yl)-methanone]",64
6,"Cn1c2ccccc2c2cc(C(=O)N3CC4CC(O)CC3C4)ccc21 (centres unmarked) [Example 7, (3-Hydroxy-6-aza-bicyclo[3.2.1]oct-6-yl)-(9-methyl-9H-carbazol-3-yl)-methanone]",360
7,"Cn1c2ccccc2c2cc(C(=O)N3CC4CC(O)C3C4)ccc21 (centres unmarked) [Example 9, (6-Hydroxy-2-aza-bicyclo[2.2.1]hept-2-yl)-(9-methyl-9H-carbazol-3-yl)-methanone]",274
8,"O=C(c1ccc2[nH]c3ccccc3c2c1)N1CC2CC(O)C1C2 (centres unmarked) [Example 10, (9H-Carbazol-3-yl)-(6-hydroxy-2-aza-bicyclo[2.2.1]hept-2-yl)-methanone]",1030
9,"O=C(NC1C2CC3CC1CC(O)(C3)C2)c1ccc2[nH]c3ccccc3c2c1 (centres unmarked) [Example 11, 9H-Carbazole-3-carboxylic acid (5-hydroxy-adamantan-2-yl)-amide]",29
10,"CN(C(=O)c1ccc2c(c1)c1ccccc1n2C)C1C2CC3CC1CC(O)(C3)C2 (centres unmarked) [Example 12, 9-Methyl-9H-carbazole-3-carboxylic acid (5-hydroxy-adamantan-2-yl)-methyl-amide]",41
11,"CN(C(=O)c1ccc2[nH]c3ccccc3c2c1)C1C2CC3CC1CC(O)(C3)C2 (centres unmarked) [Example 13, 9H-Carbazole-3-carboxylic acid (5-hydroxy-adamantan-2-yl)-methyl-amide]",76
